Key:
[1] = target: T1, oCOX-1 (ovine cyclooxygenase-1) (Ovis aries, UniProt P05979); test: [[…]-14C]-arachidonic acid TLC COX activity assay with purified enzyme; assay type: biochemical
T1 sequence (P05979 25-600): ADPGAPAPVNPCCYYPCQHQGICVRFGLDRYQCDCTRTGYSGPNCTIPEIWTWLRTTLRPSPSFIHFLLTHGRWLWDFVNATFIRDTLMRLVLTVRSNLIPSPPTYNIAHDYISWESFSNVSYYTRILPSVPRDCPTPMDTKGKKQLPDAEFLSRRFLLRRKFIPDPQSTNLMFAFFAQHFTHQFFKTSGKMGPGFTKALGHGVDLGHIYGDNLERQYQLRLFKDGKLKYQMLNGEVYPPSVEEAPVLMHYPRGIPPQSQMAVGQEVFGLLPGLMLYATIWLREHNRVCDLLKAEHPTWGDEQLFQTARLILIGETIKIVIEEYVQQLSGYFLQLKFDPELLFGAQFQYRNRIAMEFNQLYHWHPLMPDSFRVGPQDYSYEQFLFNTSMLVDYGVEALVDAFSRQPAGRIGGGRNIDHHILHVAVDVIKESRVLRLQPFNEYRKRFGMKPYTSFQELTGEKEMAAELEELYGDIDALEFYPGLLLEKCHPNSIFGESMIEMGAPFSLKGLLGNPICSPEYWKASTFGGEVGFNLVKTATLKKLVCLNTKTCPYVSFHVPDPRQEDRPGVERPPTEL

[2] = target: hCOX-1 (cyclooxygenase-1) (Homo sapiens, UniProt P23219); test: [[…]-14C]-arachidonic acid metabolism in intact OVCAR-3 cells; assay type: cell-based
Chain of hCOX-1 (cyclooxygenase-1) (P23219 24-599): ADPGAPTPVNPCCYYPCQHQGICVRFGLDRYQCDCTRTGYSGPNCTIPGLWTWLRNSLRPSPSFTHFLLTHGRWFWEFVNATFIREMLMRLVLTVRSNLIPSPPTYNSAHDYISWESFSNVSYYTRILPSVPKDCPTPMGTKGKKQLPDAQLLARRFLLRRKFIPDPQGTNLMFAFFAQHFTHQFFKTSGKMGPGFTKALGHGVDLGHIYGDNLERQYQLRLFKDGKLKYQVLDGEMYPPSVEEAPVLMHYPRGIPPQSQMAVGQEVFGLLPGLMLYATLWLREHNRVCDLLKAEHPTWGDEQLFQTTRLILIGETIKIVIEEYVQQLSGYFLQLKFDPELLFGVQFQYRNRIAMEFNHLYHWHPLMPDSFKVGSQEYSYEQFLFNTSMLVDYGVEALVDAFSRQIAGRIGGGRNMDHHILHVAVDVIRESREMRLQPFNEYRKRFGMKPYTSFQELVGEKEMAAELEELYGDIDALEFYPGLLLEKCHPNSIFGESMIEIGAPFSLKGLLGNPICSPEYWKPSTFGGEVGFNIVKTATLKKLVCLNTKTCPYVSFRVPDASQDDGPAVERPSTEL

IC50 [1]: 2000 nM
IC50 [2]: 1370 nM
SMILES: FCc1onc(-c2ccc(Cl)o2)c1-c1ccccc1 [[19F]-P6, 3-(5-chlorofuran-2-yl)-5-(fluoromethyl)-4-phenylisoxazole]
